Data as given in patent publication US20020016346A1, “Method for enhancing outflow of aqueous humor in treatment of glaucoma” (The Regents University of California, a California …, priority 1994, published 2002).

What was measured:
eye of a rabbit = test: Intra-ocular pressure in rabbits after subconjunctival injection; assay type: in vivo
Procedure: Male albino New Zealand rabbits weighing≧2 Kg were used for in vivo experiments performed under various active animal use protocols approved by the Institutional Animal Care and Use Committee at UC Davis. Animals were sedated with an intravenous dose of Napentabarbitol, 1-2 mg/Kg to permit their handling and frequent measurement of intra-ocular pressure (IOP). Topical anesthesia consisting of Proparacaine HCl (Alcaine™) was used for IOP measurements. A pneumatonometer (Mentor O & O Classic Model 30 Penumatonometer™, Norwell, Mass.) calibrated to a known (25 mmHg) pressure prior to each experiment was used for all IOP measurements. This model of Pneumatonometer provides a readout of standard deviation of each measurement; only measurements with a standard deviation of≦1 mmHg were accepted and most were less than 0.5 mmHg. Following sedation, IOP measurements were carried out over at least 30 minutes to assure that a stable baseline IOP was present.
Drugs and/or vehicle was administered to one eye of each animal via subconjunctival injection in order to bypass any barriers to drug penetration, such as an intact corneal and conjunctival epithelium and to achieve rapid and high concentrations of drug, bypassing epithelial barriers. The contralateral eye treated only with vehicle served as a control for each animal. Two syringes were prepared for each experiment, one containing drug and vehicle, the other containing only vehicle. […] Injections raised a prominent bleb, confirming subconjunctival placement of the drug or vehicle. This bleb then smoothed out over about ten minutes, indicating diffusion of the drug or vehicle throughout the subconjunctival space.
Measurements of intra-ocular pressure were taken at various intervals following the subconjunctival administration of the drug and/or vehicle. IOP in both eyes fluctuated over time reflecting the level of anesthesia. During the course of the experiment, the animal handlers and investigators were masked as to which eve had received the drug or control injection.

Na—K—Cl cotransport [1] = target: T1, Na—K—Cl cotransport (Bos taurus, UniProt F1MS08); test: K influx (86Rb) in bovine TM cell monolayers; assay type: cell-based; settings: bovine TM cells
T1 sequence (F1MS08 1-1204): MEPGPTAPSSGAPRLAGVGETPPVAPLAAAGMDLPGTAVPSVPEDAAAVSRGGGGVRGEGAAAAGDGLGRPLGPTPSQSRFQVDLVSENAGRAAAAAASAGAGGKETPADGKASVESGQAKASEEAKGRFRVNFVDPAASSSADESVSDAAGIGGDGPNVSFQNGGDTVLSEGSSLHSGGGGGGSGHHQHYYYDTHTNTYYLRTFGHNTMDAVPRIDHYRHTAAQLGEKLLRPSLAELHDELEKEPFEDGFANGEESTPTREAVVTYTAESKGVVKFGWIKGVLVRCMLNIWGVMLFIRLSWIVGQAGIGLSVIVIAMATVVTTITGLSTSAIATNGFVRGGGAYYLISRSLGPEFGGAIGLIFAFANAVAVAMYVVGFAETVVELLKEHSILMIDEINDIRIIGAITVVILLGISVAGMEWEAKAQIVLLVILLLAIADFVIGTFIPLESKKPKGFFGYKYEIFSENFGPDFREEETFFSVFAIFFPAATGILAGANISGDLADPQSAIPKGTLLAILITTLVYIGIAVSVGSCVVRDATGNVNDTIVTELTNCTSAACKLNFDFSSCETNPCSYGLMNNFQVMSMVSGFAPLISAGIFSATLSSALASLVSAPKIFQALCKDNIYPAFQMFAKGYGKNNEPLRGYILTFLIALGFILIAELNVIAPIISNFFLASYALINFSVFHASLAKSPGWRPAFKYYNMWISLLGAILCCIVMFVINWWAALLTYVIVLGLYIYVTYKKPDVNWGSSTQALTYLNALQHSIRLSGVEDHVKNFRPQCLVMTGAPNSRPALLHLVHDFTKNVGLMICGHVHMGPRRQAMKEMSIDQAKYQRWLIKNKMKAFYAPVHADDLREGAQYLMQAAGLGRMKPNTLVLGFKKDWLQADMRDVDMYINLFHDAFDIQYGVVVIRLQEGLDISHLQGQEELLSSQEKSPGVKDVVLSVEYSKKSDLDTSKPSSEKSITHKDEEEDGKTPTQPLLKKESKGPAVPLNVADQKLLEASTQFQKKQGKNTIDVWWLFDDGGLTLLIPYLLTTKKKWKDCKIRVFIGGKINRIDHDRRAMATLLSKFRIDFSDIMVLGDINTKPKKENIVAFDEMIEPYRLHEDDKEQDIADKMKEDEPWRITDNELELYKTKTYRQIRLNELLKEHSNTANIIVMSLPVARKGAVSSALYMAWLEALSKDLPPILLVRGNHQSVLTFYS
Procedure: (§1) Details of this method have been published previously (O'Donnell, M. E., supra, 1989). Briefly, bovine or human TM cell monolayers on 24 well plates were equilibrated for 10 minutes at 37° C. in a Hepes-buffered minimal essential medium (MEM) containing (in mM): 144 Na, 147 Cl, 5.8 K, 1.2 Ca, 4.2 HCO3, 0.4 H2PO4, […], 0.4 SO4, 5.6 glucose and 20 Hepes. […] The assay medium also contained ^86Rb (1 μCi/ml) (Dupont New England Nuclear, Boston, Mass.). The assay was terminated by rinsing the wells with ice-cold isotonic MgCl2, then extracting the contents with 0.2% sodium dodecyl sulfate (SDS), and determining the amount of radioactive contents by liquid scintillation. Osmolarities of all preincubation and assay media were verified by osmometry (Model 3W2, Advanced Instruments, Norwood, Mass.).
The effects of hormones, neurotransmitters and second messengers on Bumetanide-sensitive K influx of bovine trabecular meshwork cells were assessed using the procedures of Example 1. […] The control is the Hepes-buffered medium containing Na, K, Cl, CA and other ions as described in Example 1B. […] The data represent the mean values±SEM of quadruplicate determinations from two experiments.

Na—K—Cl cotransport [2] = target: T2, Na—K—Cl cotransport (Homo sapiens, UniProt P55011); test: K influx (86Rb) in human TM cell monolayers; assay type: cell-based; settings: human TM cells, 1 mM ethacrynic acid
T2 construct: bovine or human TM cell monolayers on 24 well plates; endogenous in cells; host or cells: primary cultured human trabecular meshwork cells
T2 sequence (P55011 1-1212): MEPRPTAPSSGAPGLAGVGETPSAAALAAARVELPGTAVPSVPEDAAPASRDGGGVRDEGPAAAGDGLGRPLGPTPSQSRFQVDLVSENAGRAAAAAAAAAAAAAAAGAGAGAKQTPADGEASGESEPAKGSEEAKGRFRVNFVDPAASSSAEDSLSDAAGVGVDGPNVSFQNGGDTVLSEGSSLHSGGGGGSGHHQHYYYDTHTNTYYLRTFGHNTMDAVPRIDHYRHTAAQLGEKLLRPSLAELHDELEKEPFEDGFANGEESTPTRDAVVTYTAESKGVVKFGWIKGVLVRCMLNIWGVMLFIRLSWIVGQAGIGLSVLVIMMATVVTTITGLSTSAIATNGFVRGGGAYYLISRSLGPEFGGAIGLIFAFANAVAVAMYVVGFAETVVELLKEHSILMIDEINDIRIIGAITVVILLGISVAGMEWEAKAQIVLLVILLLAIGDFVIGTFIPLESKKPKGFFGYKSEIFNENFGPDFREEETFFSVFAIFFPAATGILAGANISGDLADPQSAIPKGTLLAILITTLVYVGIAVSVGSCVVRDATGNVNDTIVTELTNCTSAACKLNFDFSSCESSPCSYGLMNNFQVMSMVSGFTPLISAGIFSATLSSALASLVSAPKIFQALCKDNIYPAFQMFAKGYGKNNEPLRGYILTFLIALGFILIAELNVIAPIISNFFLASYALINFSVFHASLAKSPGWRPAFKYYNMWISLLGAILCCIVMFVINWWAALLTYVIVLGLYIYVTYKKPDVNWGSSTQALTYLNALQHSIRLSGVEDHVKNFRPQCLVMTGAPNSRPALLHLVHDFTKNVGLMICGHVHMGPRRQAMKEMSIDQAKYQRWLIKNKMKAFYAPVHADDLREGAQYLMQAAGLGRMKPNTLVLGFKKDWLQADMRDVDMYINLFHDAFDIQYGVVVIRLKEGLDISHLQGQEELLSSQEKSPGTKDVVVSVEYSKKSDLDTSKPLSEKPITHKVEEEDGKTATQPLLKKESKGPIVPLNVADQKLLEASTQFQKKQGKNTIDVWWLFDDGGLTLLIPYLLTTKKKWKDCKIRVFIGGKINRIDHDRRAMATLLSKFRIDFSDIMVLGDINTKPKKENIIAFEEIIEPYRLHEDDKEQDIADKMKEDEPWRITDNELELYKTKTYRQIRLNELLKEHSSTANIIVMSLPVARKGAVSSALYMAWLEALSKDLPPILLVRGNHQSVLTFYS
Procedure: as §1

bovine TM cells = test: TM cell volume by electronic cell sizing (Coulter Counter); assay type: cell-based; settings: 30 minute exposure; bumetanide 10 μM, ethacrynic acid 1 mM; versus Hepes MEM control
Procedure: By the second method, TM cells were trypsinized briefly in Ca-free medium, then rinsed with medium containing trypsin inhibitor and suspended in Hepes MEM. Mean cell volumes were then analyzed by electronic cell sizing on a Coulter Counter™ […] (Model ZM), with channelizer (C256), using at least 50,000 cells per data point and an orifice diameter of 140 μm. Aliquots of suspended cells were diluted into Hepes MEM containing the tonicity and/or agents to be evaluated. Mean cell volumes of each suspension aliquot were followed over time, starting at 1 minute after addition of cells to the assay media. Cell suspensions were maintained at 37° C. throughout the assay period. Absolute volumes (picoliters/cell) were calculated from distribution curves of cell diameter, using a standard curve generated by polystyrene latex beads of known diameter.
In order to determine whether the Na—K—Cl cotransporter of TM cells may play a role in restoration of intracellular volume following hypertonicity-induced cell shrinkage, we evaluated the effect of hypertonicity on TM cell volume and Na^+—K^+—2Cl^− cotransport activity. […] The intracellular volume of the cells then increased over a slower time course, with volume recovering to approximately 84% by 33 minutes as shown in FIG. 3A.

[3] = VP 100 nM, NE 10 μM, Ach 1 μM, cAMP 50 μM, cGMP 50 μM, A23187 1 μM, PMA 10 nM, Ca-free medium plus 5 μM BAPTA-AM, control 25.6 ± 0.71

Structure (SMILES): Cc1cccc(Nc2ccncc2S(=O)(=O)NC(=O)NC(C)C)c1 [torasemide]
- IOP-lowering effect (eye of a rabbit; 0.1 cc of 1 μM torasemide subconjunctival): time coarse and magnitude similar to that seen with bumetanide
- average IOP lowering effect (eye of a rabbit; average of two experiments, FIG. 6): over 20%

Structure (SMILES): NS(=O)(=O)c1cc(C(=O)O)c(NCc2ccco2)cc1Cl [furosemide]
- time after injection of significant drop in relative IOP (eye of a rabbit; 0.1 cc of 100 μM furosemide subconjunctival): 25 min
- maximal inhibition (relative IOP) (eye of a rabbit; 0.1 cc of 100 μM furosemide subconjunctival, experiment ended at 45 minutes): 12.4%

Structure (SMILES): Nc1nc2c(nc(Br)n2[C@@H]2O[C@@H]3COP(=O)(O)O[C@H]3[C@H]2O)c(=O)[nH]1 [cGMP, 8-bromo-cyclic GMP]
- BUMETANIDE-SENSITIVE K INFLUX (Na—K—Cl cotransport [1]; [3]): 19.7 ± 0.74 μmol/g protein/min

Structure (SMILES): NS(=O)(=O)c1cc(C(=O)O)cc(NCc2ccccc2)c1Oc1ccccc1 [benzmetanide]
- time after which significant reduction of IOP was observed (eye of a rabbit; 0.1 cc of 7.5 μM benzmetanide subconjunctival): 15 min
- decrease in IOP (eye of a rabbit; 0.1 cc of 7.5 μM benzmetanide subconjunctival, after 50 minutes, relative to contralateral control eye): 24%

Structure (SMILES): C=C(CC)C(=O)c1ccc(OCC(=O)O)c(Cl)c1Cl [ethacrynic acid]
- BUMETANIDE-SENSITIVE K INFLUX (Na—K—Cl cotransport [1]; 1 mM ethacrynic acid): abolished
- BUMETANIDE-SENSITIVE K INFLUX (Na—K—Cl cotransport [2]): abolished
- intracellular volume (bovine TM cells): significant reduction

Structure (SMILES): NC(=O)CC[C@@H]1NC(=O)[C@H](Cc2ccccc2)NC(=O)[C@H](Cc2ccc(O)cc2)NC(=O)[C@@H](N)CSSC[C@@H](C(=O)N2CCC[C@H]2C(=O)N[C@@H](CCCN=C(N)N)C(=O)NCC(N)=O)NC(=O)[C@H](CC(N)=O)NC1=O [VP, vasopressin]
- BUMETANIDE-SENSITIVE K INFLUX (Na—K—Cl cotransport [1]; [3]): 40.4 ± 1.05 μmol/g protein/min

Structure (SMILES): CNc1ccc2oc(C[C@H]3O[C@@]4(CC[C@H]3C)O[C@H]([C@H](C)C(=O)c3ccc[nH]3)[C@H](C)C[C@H]4C)nc2c1C(=O)O [Compound A23187, A23187]
- BUMETANIDE-SENSITIVE K INFLUX (Na—K—Cl cotransport [1]; [3]): 33.4 ± 5.33 μmol/g protein/min
